Results: patent publication US20120238554A1, “SALTS OF POTASSIUM ATP CHANNEL OPENERS AND USES THEREOF” (priority 2007, published 2012)
“Also recorded” adds a separate entry of the source. Where a name gives a salt, the structure may show the parent alone. Read-outs that look alike come from different tables or passages of the source. Blank lines part the entries; values can stand above or below the compound they belong to.

Key:
[1] = Bioavailability of diazoxide choline and related molecules; conditions: male mice; for AUC0-6 / Cmax: Oral gavage, single 50 mg/kg dose; for Relative oral bioavail.: ratio of AUC0-6 to that of the IV dose of diazoxide choline
[2] = Solubility screen in organic solvents
[3] = Slurry studies of inter-conversion of the solid form; conditions: room temperature
[4] = Moisture sorption analysis; assay type: physicochemical
Description: Moisture Sorption Analysis was performed with a Hiden IGAsorp Moisture Sorption Instrument, Samples were first dried at 0% relative humidity at 25° C. until an equilibrium weight was reached, or for a maximum of 4 hours. Samples were then subjected to an isothermal (25° C.) scan from 10-90% relative humidity in steps of 10%. The samples were allowed to equilibrate to an asymptotic weight at each point for a maximum of 4 hours. Following absorption, a desorption scan from […] relative humidity (at 25° C.) was run in steps of −10%, again allowing a maximum of 4 hours for the samples to equilibrate. The resulting samples after desorption were dried at 80° C. for two hours and analyzed by XRPD.

[5] = Form conversion and degradation under thermal stress (60° C.)
Description: Studies were also conducted to evaluate the likelihood for conversion and degradation under thermal stress.

[6] = 50/50 mixtures of potassium salt Forms C, D, F, ethyl acetate, acetonitrile, isopropanol

Compound: O=S1(=O)N=C(NC2CCC2)Nc2ccc(Br)cc21
- AUC0-6 [1]: 800 ± 126 ng·h/mL
- Cmax [1]: 0.181 ± 0.016 µg/mL
- Relative oral bioavail. [1]: 0.6%

Compound: CC1=NS(=O)(=O)c2cc(Cl)ccc2N1 [Diazoxide Potassium Salt]
- Soluble ([2]; Acetone, 0.40 mg/mL, 55 ° C.): Yes
- Conc. ([2]; CH2Cl2, 55 ° C.): 260 µg/mL
- Soluble ([2]; CH2Cl2, […], 55 ° C.): No
- Soluble ([2]; DMF, >6.40 mg/mL, rt): Yes
- Conc. ([2]; DMF, rt): >6400 µg/mL
- Conc. ([2]; Dioxane, 55 ° C.): 280 µg/mL
- Soluble ([2]; Dioxane, […], 55 ° C.): No
- Conc. ([2]; EtOAc, 55 ° C.): 360 µg/mL
- Soluble ([2]; EtOAc, […], 55 ° C.): No
- Conc. ([2]; EtOH, 55 ° C.): 2930 µg/mL
- Soluble ([2]; EtOH, […], 55 ° C.): Yes
- Soluble ([2]; Heptane, 0.24 mg/mL, 55 ° C.): No
- Conc. ([2]; Heptane, 55 ° C.): 240 µg/mL
- Conc. ([2]; IPA, 55 ° C.): 2100 µg/mL
- Soluble ([2]; IPA, […], 55 ° C.): Yes
- Conc. ([2]; IPAc, 55 ° C.): 340 µg/mL
- Soluble ([2]; IPAc, […], 55 ° C.): No
- Soluble ([2]; MEK, 0.30 mg/mL, 55 ° C.): Partially
- Conc. ([2]; MEK, 55 ° C.): 300 µg/mL
- Conc. ([2]; MTBE, 55 ° C.): 360 µg/mL
- Soluble ([2]; MTBE, […], 55 ° C.): No
- Soluble ([2]; MeCN, 0.85 mg/mL, 55 ° C.): Yes
- Conc. ([2]; MeCN, 55 ° C.): 850 µg/mL
- Soluble ([2]; MeOH, 6.00 mg/mL, 55 ° C.): Yes
- Conc. ([2]; MeOH, 55 ° C.): 6000 µg/mL
- Conc. ([2]; THF, 55 ° C.): 360 µg/mL
- Soluble ([2]; THF, […], 55 ° C.): Partially
- Conc. ([2]; Toluene, 55 ° C.): 280 µg/mL
- Soluble ([2]; Toluene, […], 55 ° C.): No
- Soluble ([2]; Water, 0.30 mg/mL, 55 ° C.): No
- Soluble ([2]; c-Hexane, 0.30 mg/mL, 55 ° C.): No
- Conc. ([2]; c-Hexane, 55 ° C.): 300 µg/mL
- solubility ([2]; water, 55 °C): 300 µg/mL

Compound: CC(C)=O.CC1=NS(=O)(=O)c2cc(Cl)ccc2[N-]1.CC1=NS(=O)(=O)c2cc(Cl)ccc2[N-]1.[K+].[K+] [diazoxide potassium salt Form C]
- inter-conversion of the solid form in slurry [3, 6]: readily converted to Form D; also recorded: conversion to Form D was observed in all solvents
- crystalline form after moisture sorption/desorption (XRPD) [4]: consistent with Form D
- Moisture Sorption (hygroscopicity) ([4]; 25° C.): hygroscopic
- water absorbed ([4]; 90% RH, 25° C.): approximately 47 wt %
- form conversion and degradation under thermal stress (XRPD, DSC) ([5]; 60° C., closed, protected from light, 7 and 14 days): stable

Compound: CC1=NS(=O)(=O)c2cc(Cl)ccc2[N-]1.CC1=NS(=O)(=O)c2cc(Cl)ccc2[N-]1.O.[K+].[K+] [diazoxide potassium salt Form D]
- inter-conversion of the solid form in slurry [3, 6]: conversion to Form D was observed in all solvents
- crystalline form after moisture sorption/desorption (XRPD) [4]: consistent with Form D
- Moisture Sorption (hygroscopicity) ([4]; 25° C.): hygroscopic

Compound: C1COCCO1.CC1=NS(=O)(=O)c2cc(Cl)ccc2[N-]1.CC1=NS(=O)(=O)c2cc(Cl)ccc2[N-]1.[K+].[K+] [diazoxide potassium salt Form F]
- inter-conversion of the solid form in slurry [3, 6]: readily converted to Form D; also recorded: conversion to Form D was observed in all solvents
- crystalline form after moisture sorption/desorption (XRPD) [4]: consistent with Form D
- Moisture Sorption (hygroscopicity) ([4]; 25° C.): hygroscopic
- water absorbed ([4]; 90% RH, 25° C.): ~22 wt %

The next lines start with results.

- AUC0-6 [1]: 313 ± 15 ng·h/mL
- Cmax [1]: 0.08 ± 0.012 µg/mL
- Relative oral bioavail. [1]: 0.2%
Compound: CC(C)NC1=NS(=O)(=O)c2cc(Cl)c(F)cc2N1

- AUC0-6 [1]: 89 ± 16 ng·h/mL
- Cmax [1]: 0.024 ± 0.01 µg/mL
- Relative oral bioavail. [1]: 0.06%
Compound: O=S1(=O)N=C(NC2CCC2)Nc2ccc(F)cc21

- AUC0-6 [1]: 3590 ng·h/mL
- Cmax [1]: 1.56 µg/mL
- Relative oral bioavail. [1]: 2.6%
Compound: COc1ccc2c(c1)NC(NC(C)C)=NS2(=O)=O

- Moisture Sorption (hygroscopicity) ([4]; 25° C., listed as Form A): Hygroscopic - deliquesced
- water absorbed ([4]; 60% RH, 25° C., listed as Form A): 2.4 wt %
- crystalline form after moisture sorption/desorption (XRPD) ([4]; listed as Form A): consistent with Form A
- form conversion and degradation under thermal stress (XRPD, DSC) [5]: Started to convert to Form
Compound: CC1=Nc2ccc(Cl)cc2S(=O)(=O)[N-]1.C[N+](C)(C)CCO [diazoxide choline salt Form A]
- inter-conversion of the solid form in slurry ([3]; 7 and 14 days, n-heptane, dichloromethane, toluene (Table 16 Form B: CH2Cl2, THF, t-AmOH), listed as Form A): conversion to Form B was observed after seven days; also recorded: readily converted to Form B; also recorded: Converted to Form B after 7

- water absorbed ([4]; 60% RH, 25° C., listed as Form B): 7.4 wt %
- moisture absorbed ([4]; 70% relative humidity, 25° C.): over 14.5%
- crystalline form after moisture sorption/desorption (XRPD) ([4]; listed as Form B): remained in the Form B crystal structure
- form conversion and degradation under thermal stress (XRPD, DSC) [5]: Stable after 14 days at
Compound: CC1=Nc2ccc(Cl)cc2S(=O)(=O)[N-]1.C[N+](C)(C)CCO [diazoxide choline salt Form B]
- inter-conversion of the solid form in slurry ([3]; 7 and 14 days, n-heptane, dichloromethane, toluene (Table 16 Form B: CH2Cl2, THF, t-AmOH), listed as Form B): form conversion was not observed; also recorded: Stable after 14 days in
- Moisture Sorption (hygroscopicity) ([4]; 25° C., listed as Form B): hygroscopic; also recorded: Hygroscopic -
